Patent publication USRE39034E1, “Molecule involved in binding of sperm to egg surfaces and procedures for use of this molecule to enhance or decrease potential fertility” (The Penn State Research Foundation, priority 1996, dated 2006)
Entries after “also recorded” stand apart in the source; their conditions may differ. Bridges are numbered along the chain shown (N, C = ends). Where no end group is shown, it is not given here. [ ]: non-standard residue; d: D form.

B1: saposin A: human saposin produced by proteolytic cleavage of prosaposin (protein, UniProt P07602 60-142, looked up)
Saposin-A: SLPCDICKDVVTAAGDMLKDNATEEEILVYLEKTCDWLPKPNMSASCKEIVDSYLPVILDIIKGEMSRPGEVCSALNLCESLQ
modifications: Saposin-A
notes: human saposin produced by proteolytic cleavage of prosaposin
B2: human saposin B: human saposin produced by proteolytic cleavage of prosaposin (protein, UniProt P07602 195-273, looked up)
Saposin-B: GDVCQDCIQMVTDIQTAVRTNSTFVQALVEHVKEECDRLGPGMADICKNYISQYSEIAIQMMMHMQPKEICALVGFCDE
modifications: Saposin-B
notes: as for B1
B3: saposin C: human saposin produced by proteolytic cleavage of prosaposin (protein, UniProt P07602 311-390, looked up)
Saposin-C: SDVYCEVCEFLVKEVTKLIDNNKTEKEILDAFDKMCSKLPKSLSEECQEVVDTYGSSILSILLEEVSPELVCSMLHLCSG
modifications: Saposin-C
notes: as for B1

Legend:
[1] = test system: frozen-thawed rooster sperm binding to an extract of hen's egg membrane; test: In vitro microwell sperm-egg binding assay, sperm treated with peptides (fluorescent plate reader); type: cell-based; conditions: for Biological activity / sperm binding capability (in words) / Activity relative to SEQ ID NO: 1 / Peptide concentration which, after tenfold dilution of the sperm suspension, provided maximum binding / Concentration at which binding activity was induced (active at): frozen-thawed rooster sperm; for Peptide concentration which, after tenfold dilution of the sperm suspension, provided maximum binding: hen's egg membrane extract in microwell plate
Source text: The biological activity of the native UPSEBP prepared from rooster sperm and synthetic amino acid sequences were compared in an in vitro assay of sperm binding described in copending U.S. patent application Ser. No. 08/234,448. This microwell assay used plates in which the wells were coated with a binding substrate prepared from an extract of hen's egg vitelline membrane. The thawed rooster sperm, known to be reduced in UPSEBP, were washed once with isotonic salt solutions, resuspended at 50×10^5/0.1 ml, and incubated 30 minutes with 0.02-50 μg/0.5 ml native UPSEBP or synthetic peptide. Then 0.1 ml of a suspension of about 5×10^6 sperm were placed into each of triplicate wells in a microwell plate. After 2 hours of incubation at 37° C., unbound sperm were washed away and bound sperm were stained and counted using a microscope. The number of sperm bound was considered to be a measure of biological activity because there is a high correlation between the number of rooster sperm bound in vitro to such an egg extract and the fertilizing potential of sperm in that sample, as quantified by the percentage of eggs hatching young chicks after artificial insemination. Table No. 1 presents the amino acid sequence of synthetic peptides and the resulting binding capacity as compared to native UPSEBP (full sequence not provided). Initial evaluations of the capabilities of SEQ ID NO:1 through SEQ ID NO:11, native UPSEBP and rat SGP-1 to enhance sperm binding to an egg-membrane substrate were based on visual counts of bound sperm and conducted over a number of months. The binding data for SEQ ID NO:1 through SEQ ID NO:12 and native UPSEBP and rat SGP-1 presented in Table No. 1 were obtained as two data sets using a recent version of that sperm-egg binding assay in which the bound sperm were stained with a fluorescent dye binding to DNA and quantified using a fluorescent microwell-plate reader, by techniques known to those skilled in the art. The amino acid sequences of portions of human prosaposin (SEQ ID NO:15) and mouse prosaposin (SEQ ID NO:16) also are as shown. [table]

[2] = test system: frozen-thawed rooster sperm; test: Restoration of binding capability of frozen-thawed rooster sperm to hen's egg membrane extract (Examples 1, 2, 6, 7); type: cell-based; conditions: FIG. 2
Source text: Although the invention has been described generally above, particular examples give additional illustration of the products and method steps typical of the present polypeptide and uses thereof. The data presented in FIGS. 1 to 3 and 6 to 9 show the number of sperm bound per unit area of laid hen's egg perivitelline membrane, or data derived from such binding, or bound to a substrate prepared using an extract from such perivitelline membranes pursuant to the method disclosed in co-pending patent application Ser. No. 08/234,448. Except when noted, native protein extracted from rooster sperm with UPSEBP activity was used.
Freshly collected rooster sperm were cryopreserved, thawed and processed to remove glycerol. One portion of the thawed sperm received crude UPSEBP at a concentration of 2 μg protein per 10^6 sperm. Samples containing 1-10×10^6 sperm were placed into wells coated with an extract of hen's egg membrane and incubated 180 minutes. Non-bound sperm were removed by washing, and bound sperm were stained with diamido-2-phenylindole and counted using an epifluorescent microscope.
Rooster sperm subjected to a cryopreservation cycle were treated with increasing amounts of partially purified UPSEBP and subject to a standard binding assay, together with aliquots of unfrozen (fresh) sperm.
Frozen-thawed turkey sperm were exposed to rooster UPSEBP or semi-purified SGP-1.

Molecule | Biological activity / sperm binding capability (in words) [1] | Activity relative to SEQ ID NO: 1 [1] | Peptide concentration which, after tenfold dilution of the sperm suspension, provided maximum binding [1] | other results
CQSLQEYLAEQNQRQLESNKIPEVDLARVVAPFMSNIPLLLYPQDRPRSQPQPKANEDVC (cysteine pairing not given here) [SEQ ID NO:12] | conferred substantial binding activity especially when oxidized to form a molecule with a hairpin form | – | – | –
SEQ ID NO:2: Table 1 sequence: Tyr-Pro-Gln-Asp-Arg-Thr-Arg-Ser-Gln-Pro-Gln-Pro (YPQDRTRSQPQP; Portion of SEQ ID NO 1 showing lower binding capability.) | lower binding capability | 0.0006 | 300 nmol | –
SEQ ID NO:3: Table 1 sequence: Gln-Pro-Gln-Pro-Lys-Ala-Asn (QPQPKAN; Portion of SEQ ID NO 1 essentially devoid of binding capability.) | essentially devoid of binding capability | 0.0001 | 2,125 nanomoles | –
SEQ ID NO:4: Table 1 sequence: Gln-Pro-Gln-Pro-Lys-Ala-Asn-Glu-Asp-Val-Cys-Gln-Asp-Cys-Met (QPQPKANEDVCQDCM; Addition of amino acids distal to the terminal asparagine of SEQ ID NO 3 does not substantially change biological activity.) | did not substantially change biological activity | 0.002 | 85 nmol | –
SEQ ID NO:5: Table 1 sequence: Pro-Gln-Pro-Lys-Ala-Asn-Glu-Asp-Val-Cys-Gln-Asp-Cys-Met-Lys-Leu-Val-Thr-Asp (PQPKANEDVCQDCMKLVTD; Addition of amino acids distal to the terminal asparagine of SEQ ID NO 3 does not substantially change biological activity.) | – | 0.0003 | 510 nmol | –
SEQ ID NO:6: Table 1 sequence: Tyr-Pro-Gln-Asp-Arg-Thr-Arg-Ser-Gln-Pro-Gln-Cys (YPQDRTRSQPQC; Replacement of the terminal proline of SEQ ID NO 2 with a cysteine does not substantially change biological activity.) | minimal change in biological activity relative to SEQ ID NO:2 | 0.0005 | 370 nmol | –
SEQ ID NO:7: Table 1 sequence: Acetyl-Tyr-Pro-Gln-Asp-Arg-Thr-Arg-Ser-Gln-Pro-Gln-Pro (Ac-YPQDRTRSQPQP) | did not suppress biological activity relative to SEQ ID NO:2 | 0.003 | 50 nmol | –
SEQ ID NO:8: Table 1 sequence: Phe-Phe-Tyr-Pro-Gln-Asp-Arg-Thr-Arg-Ser-Gln-Pro-Gln-Pro (FFYPQDRTRSQPQP; Addition of a phenylalanine group to the NH2 end of SEQ ID NO 2 does not substantially suppress biological activity.) | did not suppress biological activity relative to SEQ ID NO:2 | 0.002 | 100 nmol | –
SEQ ID NO:10: Table 1 sequence: L-Leu-Tyr-Pro-Gln-Asp-Arg-Thr-Arg-Ser-Gln-Pro-Gln-Pro-Lys-Ala-Asn (LYPQDRTRSQPQPKAN; L-amino acids; SITE 1 L-isomer) | greater than that of SEQ ID NO:11; also recorded: reduced activity relative to SEQ ID NO:1 | 0.94 | 8.8 nmol | –
SEQ ID NO:11: Table 1 sequence: D-Leu-Tyr-Pro-Gln-Asp-Arg-Thr-Arg-Ser-Gln-Pro-Gln-Pro-Lys-Ala-Asn ([dL]YPQDRTRSQPQPKAN) | reduced activity relative to SEQ ID NO:1 | 0.001 | 25 nmol | –
SEQ ID NO:12 hairpin form: SEQ ID NO:12 modified by induced oxidation of the SH-groups to a closed loop (CQSLQEYLAEQNQRQLESNKIPEVDLARVVAPFMSNIPLLLYPQDRPRSQPQPKANEDVC; disulfide 1-60 (inferred)) | enhanced biological activity | – | – | Activity relative to the linear form of SEQ ID NO:12 [1]: 5 times; Potency relative to SEQ ID NO:1 [1]: 425 times; Concentration at which binding activity was induced (active at) [1]: 0.4 pM
SEQ ID NO:12 linear form: SEQ ID NO:12 as synthesized, 60 amino acid molecule (CQSLQEYLAEQNQRQLESNKIPEVDLARVVAPFMSNIPLLLYPQDRPRSQPQPKANEDVC; Synthetic peptide embodying the complete intervening sequence between rat saposin A and saposin B.) | substantial biological activity | – | – | Potency relative to SEQ ID NO:9 [1]: approximately 90 times; Concentration at which binding activity was induced (active at) [1]: 2 pM
YPQDRPRSQPQPKAN [SEQ ID NO:9] | substantial binding activity; also recorded: very high biological activity, approximately equal to that of SEQ ID NO:1 | 0.94 | 0.18 nmol | –
YPQDRTRSQPQPKAN [SEQ ID NO:1] | greater biological activity than SEQ ID NO:2 through SEQ ID NO:8 | 1 | 3.17 nmol | Biological activity / sperm binding capability (in words) ([1]; listed as SEQ NO:1): substantial binding activity; Number of sperm bound to the egg membrane substrate ([1]; nanomolar concentrations of peptide): approximately twice as many sperm bound
B1 | – | – | – | Restoration of binding (in words) [2]: ineffective at restoring binding
B2 | – | – | – | Binding restored, percent of that obtained by exposure to UPSEBP ([2]; UPSEBP 2 μg/million sperm): about 70%
B3 | – | – | – | Restoration of binding (in words) [2]: ineffective at restoring binding
